Measured values taken from PubChem BioAssay (NCI).
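96-well plates; 48 h exposure; 5 concentrations. Endpoints by linear interpolation between flanking doses. Not reached: highest tested concentration assigned. TGI: total growth inhibition.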

Legend:
Test in all cases: NCI-60 cell line screen, 48 h
A498 renal = test system: A498 renal
HT29 colon = test system: HT29 colon
SK-OV-3 ovarian = test system: SK-OV-3 ovarian
DU-145 prostate = test system: DU-145 prostate
MDA-MB-435 = test system: MDA-MB-435
OVCAR-8 ovarian = test system: OVCAR-8 ovarian
RPMI-8226 leukemia = test system: RPMI-8226 leukemia
OVCAR-4 ovarian = test system: OVCAR-4 ovarian
HOP-62 NSCLC = test system: HOP-62 NSCLC
UACC-62 melanoma = test system: UACC-62 melanoma
CCRF-CEM leukemia = test system: CCRF-CEM leukemia
SNB-19 CNS = test system: SNB-19 CNS
U251 CNS = test system: U251 CNS
HCC-2998 colon = test system: HCC-2998 colon
LOX IMVI melanoma = test system: LOX IMVI melanoma
UO-31 renal = test system: UO-31 renal
RXF 393 renal = test system: RXF 393 renal
SK-MEL-2 melanoma = test system: SK-MEL-2 melanoma
MDA-N = test system: MDA-N
OVCAR-5 ovarian = test system: OVCAR-5 ovarian
SN12C renal = test system: SN12C renal
OVCAR-3 ovarian = test system: OVCAR-3 ovarian
EKVX NSCLC = test system: EKVX NSCLC
M14 melanoma = test system: M14 melanoma
SK-MEL-5 melanoma = test system: SK-MEL-5 melanoma
HS 578T breast = test system: HS 578T breast
MDA-MB-231 breast = test system: MDA-MB-231 breast
SK-MEL-28 melanoma = test system: SK-MEL-28 melanoma
UACC-257 melanoma = test system: UACC-257 melanoma
KM12 colon = test system: KM12 colon
786-0 renal = test system: 786-0 renal
NCI-H23 lung = test system: NCI-H23 lung
BT-549 breast = test system: BT-549 breast
IGROV1 ovarian = test system: IGROV1 ovarian
MALME-3M melanoma = test system: MALME-3M melanoma
HCT-116 colon = test system: HCT-116 colon
MOLT-4 leukemia = test system: MOLT-4 leukemia
SW-620 colon = test system: SW-620 colon
NCI-H522 lung = test system: NCI-H522 lung
CAKI-1 renal = test system: CAKI-1 renal
HL-60(TB) leukemia = test system: HL-60(TB) leukemia
MCF7 breast = test system: MCF7 breast
T-47D breast = test system: T-47D breast
HOP-92 NSCLC = test system: HOP-92 NSCLC
SF-539 CNS = test system: SF-539 CNS
NCI-H226 lung = test system: NCI-H226 lung
COLO 205 colon = test system: COLO 205 colon
SF-268 CNS = test system: SF-268 CNS
SF-295 CNS = test system: SF-295 CNS
A549 NSCLC = test system: A549 NSCLC
NCI/ADR-RES ovarian = test system: NCI/ADR-RES ovarian
HCT-15 colon = test system: HCT-15 colon
NCI-H460 lung = test system: NCI-H460 lung

Measured: TGI

O=C(Nc1ccc2[nH]c(C(=O)N3CC(CCl)c4ccc([N+](=O)[O-])cc43)cc2c1)c1cc2ccccc2o1 (stereo not drawn)
> 1100 µM: all assays above
